Laboratory results as given in ChEMBL document CHEMBL1201862, “PubChem BioAssay data set” (2004).
Active and inactive are the calls of the source.

Tests used:
[1] = target: Ras and Rab interactor 1/Tyrosine-protein kinase ABL1 (Homo sapiens, UniProt P00519+Q13671); format: functional;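 also: biochemical TR-FRET dose-response test measuring inhibition of binding between Rin1 and Abl proteins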
[2] = Luminescence Cell-Based Dose Confirmation HTS to Identify Activators of 5'UTR Stem-Loop Driven Alpha-Synuclein mRNA Translation in H4 Neuroglioblastoma Cells. [Related pubchem assays: 1829 (Project Summary), 1814 (Primary HTS)]; format: functional
[3] = Luminescence Cell-Based Dose Response HTS to Identify Activators of Luciferase Translation or Activity in H4 […] Cells. [Related pubchem assays: 1829 (Project Summary), 1814 (Primary HTS)]; format: functional
H4 = experiment: Luminescence Cell-Based Dose Response HTS to Identify Activators of 5'UTR Stem-Loop Driven Prion Protein mRNA Translation in H4 Neuroglioblastoma Cells. [Related pubchem assays: 1829 (Project Summary), 1814 (Primary HTS)]; format: functional; conditions: Homo sapiens
[4] = target: T1, Sentrin-specific protease 8 (Homo sapiens, UniProt Q96LD8); experiment: inhibition of human SENP8 cleavage activity – biochemical, luminescence, SAR follow-up (AID 504501); format: functional
T1 sequence (Q96LD8 whole entry): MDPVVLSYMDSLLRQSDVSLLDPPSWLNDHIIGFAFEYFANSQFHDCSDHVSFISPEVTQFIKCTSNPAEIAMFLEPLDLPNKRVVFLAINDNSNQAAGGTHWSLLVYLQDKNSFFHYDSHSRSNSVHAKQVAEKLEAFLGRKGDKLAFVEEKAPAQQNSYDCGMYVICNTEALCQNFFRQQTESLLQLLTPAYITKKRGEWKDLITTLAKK

Caspase-3 = target: T2, Caspase-3 (Homo sapiens, UniProt P42574); experiment: SAR Analysis of small molecule inhibitors of Sentrin-specific proteases (SENPs) using a Caspase-3 Selectivity assay. [Related pubchem assays (depositor defined):AID2540, AID2599, AID434973, AID489001]; format: functional
T2 sequence (P42574 whole entry): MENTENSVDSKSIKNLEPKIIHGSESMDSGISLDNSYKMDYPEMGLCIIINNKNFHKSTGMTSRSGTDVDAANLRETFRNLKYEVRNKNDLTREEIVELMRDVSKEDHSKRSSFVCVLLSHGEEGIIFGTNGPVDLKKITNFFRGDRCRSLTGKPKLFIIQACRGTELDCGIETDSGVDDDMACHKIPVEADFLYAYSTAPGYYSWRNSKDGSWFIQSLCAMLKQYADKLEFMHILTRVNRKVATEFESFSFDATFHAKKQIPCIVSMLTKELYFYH

[5] = target: T3, Sentrin-specific protease 6 (Homo sapiens, UniProt Q9GZR1); experiment: SAR Analysis of small molecule inhibitors of Sentrin-specific protease 6 (SENP6) using a Luminescent assay. [Related pubchem assays (depositor defined):AID2582, AID2599]; format: functional
T3 sequence (Q9GZR1 whole entry): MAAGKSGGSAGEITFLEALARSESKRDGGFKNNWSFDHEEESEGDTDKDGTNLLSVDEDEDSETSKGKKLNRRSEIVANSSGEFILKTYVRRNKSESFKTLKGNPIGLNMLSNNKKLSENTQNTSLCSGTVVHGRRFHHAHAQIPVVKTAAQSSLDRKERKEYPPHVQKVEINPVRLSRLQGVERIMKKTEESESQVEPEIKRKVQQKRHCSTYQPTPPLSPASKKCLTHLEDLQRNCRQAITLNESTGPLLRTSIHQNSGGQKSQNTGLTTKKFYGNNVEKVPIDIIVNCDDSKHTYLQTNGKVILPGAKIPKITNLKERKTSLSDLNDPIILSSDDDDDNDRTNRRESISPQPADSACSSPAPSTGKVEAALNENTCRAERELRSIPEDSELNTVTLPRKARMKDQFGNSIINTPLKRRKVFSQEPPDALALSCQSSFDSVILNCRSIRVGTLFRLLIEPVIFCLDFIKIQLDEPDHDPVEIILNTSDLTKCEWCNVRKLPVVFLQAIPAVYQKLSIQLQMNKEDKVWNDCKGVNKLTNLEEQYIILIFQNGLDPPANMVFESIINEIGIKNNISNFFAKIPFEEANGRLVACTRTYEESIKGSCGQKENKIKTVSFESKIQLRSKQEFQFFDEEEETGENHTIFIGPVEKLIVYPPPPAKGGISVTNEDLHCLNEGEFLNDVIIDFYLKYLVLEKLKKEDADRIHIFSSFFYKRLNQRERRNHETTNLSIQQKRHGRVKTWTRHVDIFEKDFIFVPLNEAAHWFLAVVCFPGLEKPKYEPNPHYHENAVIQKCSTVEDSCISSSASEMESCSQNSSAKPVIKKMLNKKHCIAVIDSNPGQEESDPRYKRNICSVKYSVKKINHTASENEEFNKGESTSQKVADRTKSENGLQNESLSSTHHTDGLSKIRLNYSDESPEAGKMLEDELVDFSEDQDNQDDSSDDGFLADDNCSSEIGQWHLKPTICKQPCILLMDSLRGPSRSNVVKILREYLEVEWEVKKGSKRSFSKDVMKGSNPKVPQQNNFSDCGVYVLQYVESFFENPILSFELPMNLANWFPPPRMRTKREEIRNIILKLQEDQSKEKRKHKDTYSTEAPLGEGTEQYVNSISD

[6] = target: T4, High affinity choline transporter 1 (Homo sapiens, UniProt Q9GZV3); experiment: human choline transporter blockers, potency – cell-based, 5-point CRC, membrane potential dye, dose response (AID 504840); format: functional
T4 sequence (Q9GZV3 whole entry): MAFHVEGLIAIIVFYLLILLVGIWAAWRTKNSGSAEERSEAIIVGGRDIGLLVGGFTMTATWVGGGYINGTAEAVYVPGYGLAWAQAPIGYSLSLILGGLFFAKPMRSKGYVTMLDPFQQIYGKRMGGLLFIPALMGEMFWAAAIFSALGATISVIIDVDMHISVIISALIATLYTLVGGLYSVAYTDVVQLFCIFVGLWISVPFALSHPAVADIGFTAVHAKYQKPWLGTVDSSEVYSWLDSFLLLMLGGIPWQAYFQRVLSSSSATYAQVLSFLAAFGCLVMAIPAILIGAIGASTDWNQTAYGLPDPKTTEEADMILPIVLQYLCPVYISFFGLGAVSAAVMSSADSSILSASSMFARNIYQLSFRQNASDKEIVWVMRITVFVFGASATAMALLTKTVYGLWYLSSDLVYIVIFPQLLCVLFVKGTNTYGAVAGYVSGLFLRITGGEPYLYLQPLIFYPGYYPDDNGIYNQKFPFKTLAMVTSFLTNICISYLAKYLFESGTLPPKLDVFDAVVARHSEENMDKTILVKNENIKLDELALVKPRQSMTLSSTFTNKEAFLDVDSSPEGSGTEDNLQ

[7] = target: T4, High affinity choline transporter 1; experiment: human choline transporter blockers, potency – cell-based, 10-point CRC, membrane potential dye, dose response (AID 588401); format: functional;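 also: membrane potential dye fluorescence of choline-evoked depolarization via CHT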
[8] = target: T5, DNA repair and recombination protein RAD54-like (Homo sapiens, UniProt Q92698); experiment: RAD54 Holliday junction migration blockers – biochemical, fluorescence, cherry-picked samples, dose series, confirmation (AID 651657); format: functional
T5 sequence (Q92698 whole entry): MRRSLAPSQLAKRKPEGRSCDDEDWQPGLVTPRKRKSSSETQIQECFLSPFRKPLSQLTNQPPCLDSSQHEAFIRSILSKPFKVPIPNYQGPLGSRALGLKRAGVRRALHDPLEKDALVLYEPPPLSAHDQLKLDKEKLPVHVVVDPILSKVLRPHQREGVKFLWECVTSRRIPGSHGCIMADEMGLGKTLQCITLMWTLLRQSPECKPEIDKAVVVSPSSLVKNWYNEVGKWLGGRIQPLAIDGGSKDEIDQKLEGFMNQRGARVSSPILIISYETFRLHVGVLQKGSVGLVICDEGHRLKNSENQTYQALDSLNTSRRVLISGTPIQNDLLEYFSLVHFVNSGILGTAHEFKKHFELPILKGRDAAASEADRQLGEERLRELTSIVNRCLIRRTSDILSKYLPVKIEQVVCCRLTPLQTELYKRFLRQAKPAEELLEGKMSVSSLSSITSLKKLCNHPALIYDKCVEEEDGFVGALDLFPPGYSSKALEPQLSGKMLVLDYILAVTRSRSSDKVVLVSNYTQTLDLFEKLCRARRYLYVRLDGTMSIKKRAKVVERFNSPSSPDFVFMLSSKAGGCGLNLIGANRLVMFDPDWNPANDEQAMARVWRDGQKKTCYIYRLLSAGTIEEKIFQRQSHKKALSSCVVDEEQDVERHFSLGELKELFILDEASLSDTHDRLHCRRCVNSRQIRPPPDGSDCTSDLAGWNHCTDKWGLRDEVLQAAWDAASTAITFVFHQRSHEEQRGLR

[9] = target: T6, DNA repair protein RAD52 homolog (Homo sapiens, UniProt P43351); format: functional, biochemical
T6 sequence (P43351 whole entry): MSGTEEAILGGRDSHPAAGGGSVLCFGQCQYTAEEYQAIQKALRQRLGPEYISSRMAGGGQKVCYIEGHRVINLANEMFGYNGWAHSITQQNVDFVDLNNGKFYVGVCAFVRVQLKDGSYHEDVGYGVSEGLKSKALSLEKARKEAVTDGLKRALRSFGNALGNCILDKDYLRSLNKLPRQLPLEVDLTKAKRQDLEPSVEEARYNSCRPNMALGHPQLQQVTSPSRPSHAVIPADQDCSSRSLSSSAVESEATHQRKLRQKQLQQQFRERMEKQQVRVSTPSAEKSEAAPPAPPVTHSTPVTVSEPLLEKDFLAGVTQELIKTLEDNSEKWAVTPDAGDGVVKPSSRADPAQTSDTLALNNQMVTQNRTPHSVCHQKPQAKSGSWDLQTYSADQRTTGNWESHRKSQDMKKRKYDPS

[10] = target: T7, Short transient receptor potential channel 4 (Mus musculus, UniProt Q9QUQ5); experiment: block of DAMGO-driven TRPC4 calcium entry – cell-based, HEK293 TRPC4/mu-opioid, Fluo-4 calcium, dose response (AID 434942); format: functional;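 also: potency of inhibitors blocking the TRPC4 calcium response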
T7 sequence (Q9QUQ5 whole entry): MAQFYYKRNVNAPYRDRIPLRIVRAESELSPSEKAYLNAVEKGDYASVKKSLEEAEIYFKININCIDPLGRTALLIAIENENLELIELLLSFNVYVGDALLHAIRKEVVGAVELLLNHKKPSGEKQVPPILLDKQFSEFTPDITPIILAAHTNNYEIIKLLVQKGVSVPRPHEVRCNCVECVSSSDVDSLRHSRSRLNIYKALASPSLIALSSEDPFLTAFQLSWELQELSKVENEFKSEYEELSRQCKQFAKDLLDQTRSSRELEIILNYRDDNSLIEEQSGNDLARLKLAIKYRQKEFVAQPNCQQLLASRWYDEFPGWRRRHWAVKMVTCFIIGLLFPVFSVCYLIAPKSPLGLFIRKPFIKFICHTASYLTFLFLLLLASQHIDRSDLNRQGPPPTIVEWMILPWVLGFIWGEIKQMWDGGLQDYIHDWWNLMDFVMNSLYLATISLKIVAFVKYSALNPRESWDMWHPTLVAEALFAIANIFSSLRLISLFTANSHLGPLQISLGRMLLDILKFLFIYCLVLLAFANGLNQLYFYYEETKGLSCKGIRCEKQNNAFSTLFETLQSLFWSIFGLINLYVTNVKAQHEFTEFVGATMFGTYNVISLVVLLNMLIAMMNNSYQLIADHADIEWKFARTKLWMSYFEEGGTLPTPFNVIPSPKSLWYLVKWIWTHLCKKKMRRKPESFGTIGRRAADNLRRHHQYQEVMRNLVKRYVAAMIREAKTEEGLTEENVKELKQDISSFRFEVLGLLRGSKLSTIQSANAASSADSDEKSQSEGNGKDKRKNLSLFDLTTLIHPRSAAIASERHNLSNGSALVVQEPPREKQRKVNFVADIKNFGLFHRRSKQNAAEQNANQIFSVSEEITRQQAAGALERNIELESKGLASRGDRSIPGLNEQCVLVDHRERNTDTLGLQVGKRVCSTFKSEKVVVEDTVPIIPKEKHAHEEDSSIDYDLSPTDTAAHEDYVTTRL

[11] = reduction of Shn3 3'UTR-driven luciferase in osteoblasts – cell-based, Clone20 osteoblasts, firefly luciferase, cherry-picked, dose response (AID 624132); format: functional;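 also: firefly luciferase luminescence from reporter carrying the Shn3 3'UTR in osteoblasts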
[12] = loss of viability in HepG2 cells – cell-based, CellTiter-Glo, cherry-picked, cytotoxicity control for Shn3 inhibitor project, dose response (AID 624134); format: functional
[13] = non-specific 3'UTR reporter inhibition in Clone20-Shn3RL – cell-based, Renilla luciferase, cherry-picked, counter-screen for Shn3 inhibitor project, dose response (AID 624133); format: functional
Protein Wnt-3a = Protein Wnt-3a (Mus musculus, UniProt P27467); experiment: antagonism of Wnt3a pathway luciferase reporter – Wnt-LIGHT cells, luminescence, selectivity assay for Gli-SUFU antagonist project, dose response (AID 651570); format: functional; conditions: read-out: IC50_Mean;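 also: Wnt-LIGHT reporter cells stimulated with conditioned medium from Wnt3a-producing cells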
Sequence of Protein Wnt-3a (P27467 whole entry): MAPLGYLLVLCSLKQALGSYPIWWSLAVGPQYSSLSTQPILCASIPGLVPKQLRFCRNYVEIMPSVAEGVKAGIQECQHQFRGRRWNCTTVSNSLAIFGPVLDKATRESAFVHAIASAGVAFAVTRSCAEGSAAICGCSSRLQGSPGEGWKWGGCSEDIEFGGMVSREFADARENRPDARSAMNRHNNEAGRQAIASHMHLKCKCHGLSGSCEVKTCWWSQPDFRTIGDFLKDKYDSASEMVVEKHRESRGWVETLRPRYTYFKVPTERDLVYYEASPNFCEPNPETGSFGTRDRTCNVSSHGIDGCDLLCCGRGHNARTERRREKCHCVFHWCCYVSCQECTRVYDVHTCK

Sequence of Ras and Rab interactor 1/Tyrosine-protein kinase ABL1 (P00519 whole entry): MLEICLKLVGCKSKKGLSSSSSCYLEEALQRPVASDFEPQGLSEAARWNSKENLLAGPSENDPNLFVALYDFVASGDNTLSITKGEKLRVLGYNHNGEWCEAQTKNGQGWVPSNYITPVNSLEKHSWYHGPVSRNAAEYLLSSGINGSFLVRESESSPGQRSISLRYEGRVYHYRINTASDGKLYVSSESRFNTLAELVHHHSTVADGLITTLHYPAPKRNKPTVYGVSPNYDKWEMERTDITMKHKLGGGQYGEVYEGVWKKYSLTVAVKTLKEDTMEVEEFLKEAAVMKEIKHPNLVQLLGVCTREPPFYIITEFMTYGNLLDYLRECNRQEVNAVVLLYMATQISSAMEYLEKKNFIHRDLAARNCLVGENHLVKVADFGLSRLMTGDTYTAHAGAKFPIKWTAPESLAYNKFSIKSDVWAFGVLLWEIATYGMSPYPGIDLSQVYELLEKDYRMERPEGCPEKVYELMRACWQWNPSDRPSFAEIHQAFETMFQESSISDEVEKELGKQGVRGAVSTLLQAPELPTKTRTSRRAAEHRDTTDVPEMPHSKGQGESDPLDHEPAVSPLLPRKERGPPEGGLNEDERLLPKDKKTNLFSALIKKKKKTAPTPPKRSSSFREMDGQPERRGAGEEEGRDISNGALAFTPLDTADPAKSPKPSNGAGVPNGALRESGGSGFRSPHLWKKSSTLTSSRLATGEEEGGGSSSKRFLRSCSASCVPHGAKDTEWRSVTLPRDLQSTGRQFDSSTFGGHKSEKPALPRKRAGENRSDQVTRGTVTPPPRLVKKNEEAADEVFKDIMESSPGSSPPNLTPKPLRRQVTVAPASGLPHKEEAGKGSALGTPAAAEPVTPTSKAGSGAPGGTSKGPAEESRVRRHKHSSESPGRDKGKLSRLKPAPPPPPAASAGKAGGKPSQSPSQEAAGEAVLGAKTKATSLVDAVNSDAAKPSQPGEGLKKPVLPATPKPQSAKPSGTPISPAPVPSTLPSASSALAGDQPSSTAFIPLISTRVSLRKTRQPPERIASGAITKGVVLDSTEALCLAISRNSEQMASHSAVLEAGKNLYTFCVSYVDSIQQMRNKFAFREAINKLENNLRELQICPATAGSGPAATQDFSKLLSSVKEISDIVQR
Sequence of Ras and Rab interactor 1/Tyrosine-protein kinase ABL1 (Q13671 whole entry): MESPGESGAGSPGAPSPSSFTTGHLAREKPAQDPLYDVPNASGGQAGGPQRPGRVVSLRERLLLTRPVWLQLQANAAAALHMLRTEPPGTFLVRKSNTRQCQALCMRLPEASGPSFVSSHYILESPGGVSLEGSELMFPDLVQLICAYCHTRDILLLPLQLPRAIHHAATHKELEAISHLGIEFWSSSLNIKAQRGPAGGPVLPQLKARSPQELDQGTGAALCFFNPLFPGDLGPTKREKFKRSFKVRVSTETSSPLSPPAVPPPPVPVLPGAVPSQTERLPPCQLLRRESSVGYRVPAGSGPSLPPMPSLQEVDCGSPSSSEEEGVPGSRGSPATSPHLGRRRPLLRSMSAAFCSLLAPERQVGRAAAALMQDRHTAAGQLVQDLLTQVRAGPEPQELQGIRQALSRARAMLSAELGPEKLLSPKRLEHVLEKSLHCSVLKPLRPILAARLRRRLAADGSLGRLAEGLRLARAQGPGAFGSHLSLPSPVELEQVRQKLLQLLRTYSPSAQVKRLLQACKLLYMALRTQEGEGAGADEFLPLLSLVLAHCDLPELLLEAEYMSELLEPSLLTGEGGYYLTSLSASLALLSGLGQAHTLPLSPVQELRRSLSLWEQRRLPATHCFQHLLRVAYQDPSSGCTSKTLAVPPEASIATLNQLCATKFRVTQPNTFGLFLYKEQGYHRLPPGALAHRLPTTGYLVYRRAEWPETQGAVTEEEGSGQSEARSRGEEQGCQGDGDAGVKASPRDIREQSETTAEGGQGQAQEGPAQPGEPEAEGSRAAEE

CCCc1ncc(CN2CCC(C(=O)Nc3cccc(-c4cscn4)c3)CC2)cn1
IC50 [1]: 22.3 µM (inactive)

CC(=O)Nc1ccc(/C=C/c2n[nH]c(-c3ccccc3O)n2)cc1
EC50 [2]: 2.79 µM (active) | EC50 [3]: 13.6 µM (active) | EC50 (H4): 1.33 µM (active) | IC50 [4]: > 99 µM (inactive) | IC50 (Caspase-3): 30 µM (active) | IC50 [5]: > 99 µM (inactive)

CCCN1CCN(CCCN=C(S)Nc2ccc3nc(N4CCN(CC)CC4)cc(C)c3c2)CC1
IC50 [6]: 2.3 µM (active) | IC50 [7]: 2.67 µM (active) | AC50 [8]: 25.8 µM (active) | AC50 [9]: 1.71 µM (active)

Cc1c(C(=O)NCC(c2ccco2)N(C)C)oc2c(Cl)cccc12 (centres undefined)
EC50 [10]: 0.267 µM (active) | IC50 [1]: 5.07 µM (active)

Cc1cc(C)nc(SCC(=O)Nc2ccc(N3CCOCC3)c(Cl)c2)n1
AC50 [11]: 1.66 µM (active) | AC50 [12]: > 70 µM (inactive) | AC50 [13]: 3.13 µM (active) | IC50 (Protein Wnt-3a): 5.24 µM (active)

CC(NC(=O)NC1CCCCC1)c1ccc2c(c1)OCO2 (centres undefined)
IC50 [6]: 3.47 µM (active) | IC50 [7]: 2.57 µM (active)

COc1ccc(N(C)S(=O)(=O)c2cccc(C(=O)NC3CCCCC3C)c2)cc1 (centres undefined)
IC50 [6]: 4.79 µM (active) | IC50 [7]: 7.08 µM (active)

O=C(Cn1cc(C(=O)C2CC2)c2ccccc21)Nc1ccccc1Cl
AC50 [11]: 3.42 µM (active) | AC50 [13]: 4.12 µM (active) | IC50 (Protein Wnt-3a): 5.2 µM (active)
